Experimental data as given in US10047074B2, “Pharmaceutical compound” (IOmet Pharma Ltd., priority 2014, dated 2018).

Biological target: T1, TDO (A172) (Homo sapiens, UniProt P48775)
T1 construct: This assay utilised cancer cells which expressed either TDO (A172) or IDO (SKOV3); endogenous in cells; host or cells: A172 (human glioblastoma)
Assay: A172 Kynurenine cell based assay
Settings: A172 human glioblastoma cells expressing TDO; kynurenine production, 48 hours
Experimental: (§1) Exemplary compounds of the invention were prepared, and tested to determine their effect as TDO and/or IDO inhibitors. Two different assays were employed: 1. a cell-based assay for detecting the effect of test compounds on kynurenine production in two different cancer cell types. This assay utilised cancer cells which expressed either TDO (A172) or IDO (SKOV3) and as such was used as a means of testing compound activity at these two enzymes in a cell-based context. 2. a TDO and IDO biochemical coupled assay which utilised recombinantly produced and purified TDO and IDO enzymes in combination with the enzyme formamidase. This coupled enzyme system allowed conversion of N-formylkynurenine produced by TDO or IDO activity to kynurenine which was then quantified by fluorescence following addition of Erhlich's Reagent The protocols for these are set out below.
(§2) Cell Based Assay for Detection of Kynurenine Produced by TDO and/or IDO
A172 (human glioblastoma) and SKOV3 (human ovarian adenocarcinoma) cells were seeded in a 96 well plate at 30,000 or 40,000 cells per well respectively in phenol red-free RPMI supplemented with 10% FCS, 2 mM L-glutamine and 500 µM L-tryptophan. IDO expression was induced in the SKOV3 cells by the addition of 500 ng/ml IFN-γ. Cells were incubated at 37° C. with or without the addition of test compound. After 48 hours, the cells were removed by centrifugation and Erhlich's reagent was added to the supernatant. The Erhlich's reagent was incubated for 5 minutes before the absorbance was read at 490 nm.

T1 sequence (P48775 whole entry): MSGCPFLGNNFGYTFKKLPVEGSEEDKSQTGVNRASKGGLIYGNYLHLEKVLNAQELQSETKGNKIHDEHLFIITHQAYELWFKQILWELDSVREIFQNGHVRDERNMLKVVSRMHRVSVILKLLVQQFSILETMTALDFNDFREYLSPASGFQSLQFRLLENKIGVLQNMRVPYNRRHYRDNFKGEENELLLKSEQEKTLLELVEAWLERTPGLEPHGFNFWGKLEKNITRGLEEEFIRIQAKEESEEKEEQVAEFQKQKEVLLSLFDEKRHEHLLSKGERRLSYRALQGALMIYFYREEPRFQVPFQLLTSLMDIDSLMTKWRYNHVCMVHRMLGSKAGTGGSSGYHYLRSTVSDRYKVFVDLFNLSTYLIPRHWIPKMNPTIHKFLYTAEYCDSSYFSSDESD

Structure (SMILES)	A172 Kynurenine cell based assay pIC50
CCOC(=O)CCC(=O)Nc1oncc1-c1ccccc1 [Compound 28]	+++ (+++ = pIC50 ≥ 5.50)
O=S(=O)(Cc1ccccc1)Nc1oncc1-c1ccccc1 [Compound 29]	+ (+ = pIC50 4.00-4.49)
CC(C)S(=O)(=O)Nc1oncc1-c1ccccc1 [Compound 30]	++ (++ = pIC50 4.50-5.49)
CC(C)CS(=O)(=O)Nc1oncc1-c1ccccc1 [Compound 31]	+/− (+/− = pIC50 < 4.00)
O=S(=O)(CC1CCOCC1)Nc1oncc1-c1ccccc1 [Compound 32]	+/− (+/− = pIC50 < 4.00)
O=C(O)CCC(=O)Nc1oncc1-c1ccccc1 [Compound 33]	+ (+ = pIC50 4.00-4.49)
CC(=O)N1CCC(C(=O)Nc2oncc2-c2ccccc2)CC1 [Compound 35]	++ (++ = pIC50 4.50-5.49)
CN1CCC(C(=O)Nc2oncc2-c2ccccc2)CC1 [Compound 36]	++ (++ = pIC50 4.50-5.49)
CN(C)CC(=O)Nc1oncc1-c1ccccc1 [Compound 37]	++ (++ = pIC50 4.50-5.49)
CS(=O)(=O)N1CCC(C(=O)Nc2oncc2-c2ccccc2)CC1 [Compound 38]	++ (++ = pIC50 4.50-5.49)
O=C(Nc1oncc1-c1ccccc1)c1ccncc1 [Compound 39]	+ (+ = pIC50 4.00-4.49)
O=C(Nc1oncc1-c1ccccc1)c1ccccn1 [Compound 40]	+++ (+++ = pIC50 ≥ 5.50)
O=C(CCO)Nc1oncc1-c1ccccc1 [Compound 41]	+++ (+++ = pIC50 ≥ 5.50)
OCCCNc1oncc1-c1ccccc1 [Compound 42]	+++ (+++ = pIC50 ≥ 5.50)
CCOC(=O)CC(=O)Nc1oncc1-c1ccccc1 [Compound 43]	+++ (+++ = pIC50 ≥ 5.50)
O=C(Nc1oncc1-c1ccccc1)C1CCCCN1 (centres unmarked) [Compound 44]	+++ (+++ = pIC50 ≥ 5.50)
CCOC(=O)C(=O)Nc1oncc1-c1ccccc1 [Compound 45]	+++ (+++ = pIC50 ≥ 5.50)
Nc1oncc1-c1ccncc1 [Compound 46]	++ (++ = pIC50 4.50-5.49)
CN(CCC(=O)Nc1oncc1-c1ccccc1)S(C)(=O)=O [Compound 47]	++ (++ = pIC50 4.50-5.49)
CS(=O)(=O)NCCC(=O)Nc1oncc1-c1ccccc1 [Compound 48]	++ (++ = pIC50 4.50-5.49)

Structure (SMILES)	A172 Kynurenine cell based assay pIC50
COc1ccccc1-c1cnoc1-c1ccccc1 [Compound 51]	++ (++ = pIC50 4.50-5.49)
c1ccc(-n2nnnc2NCC2CCCCC2)cc1 [Compound 52]	+ (+ = pIC50 4.00-4.49)
O=S(=O)(Nc1cnoc1-c1ccccc1)c1ccc2ccccc2c1 [Compound 53]	+ (+ = pIC50 4.00-4.49)
O=S(=O)(Nc1cnoc1-c1ccccc1)c1cc(Cl)ccc1Cl [Compound 54]	+ (+ = pIC50 4.00-4.49)
CS(=O)(=O)c1ccc(Cl)c(S(=O)(=O)Nc2cnoc2-c2ccccc2)c1 [Compound 55]	+/− (+/− = pIC50 < 4.00)
O=S(=O)(Nc1cnoc1-c1ccccc1)N1CCCCC1 [Compound 56]	+/− (+/− = pIC50 < 4.00)
OCCNc1oncc1-c1ccccc1 [Compound 57]	+++ (+++ = pIC50 ≥ 5.50)
CN(C)C(=O)CCC(=O)Nc1oncc1-c1ccccc1 [Compound 58]	++ (++ = pIC50 4.50-5.49)
O=S(=O)(Nc1oncc1-c1ccccc1)c1cccnc1 [Compound 59]	+/− (+/− = pIC50 < 4.00)
CN(C)C(=O)CNc1oncc1-c1ccccc1 [Compound 60]	++ (++ = pIC50 4.50-5.49)
CN1CCCCC1C(=O)Nc1oncc1-c1ccccc1 (centres unmarked) [Compound 61]	+ (+ = pIC50 4.00-4.49)
O=C(Nc1oncc1-c1ccccc1)c1cccnc1 [Compound 62]	++ (++ = pIC50 4.50-5.49)
CC(C)(O)C(=O)Nc1oncc1-c1ccccc1 [Compound 64]	++ (++ = pIC50 4.50-5.49)
CNC(=O)CCC(=O)Nc1oncc1-c1ccccc1 [Compound 65]	+++ (+++ = pIC50 ≥ 5.50)
O=C(Nc1oncc1-c1ccccc1)C1CCCN1 (centres unmarked) [Compound 66]	++ (++ = pIC50 4.50-5.49)
Nc1oncc1-c1ccccc1[N+](=O)[O-] [Compound 67]	+/− (+/− = pIC50 < 4.00)
Nc1oncc1-c1ccccc1O [Compound 68]	++ (++ = pIC50 4.50-5.49)
CN(C)CCC(=O)Nc1oncc1-c1ccccc1 [Compound 69]	+++ (+++ = pIC50 ≥ 5.50)
O=C(Nc1nnnn1-c1ccccc1)c1ccccc1 [Compound 70]	++ (++ = pIC50 4.50-5.49)
CNCC(=O)Nc1oncc1-c1ccccc1 [Compound 71]	++ (++ = pIC50 4.50-5.49)

Biological target: T2, IDO (SKOV3) (Homo sapiens, UniProt P14902)
T2 construct: IDO expression was induced in the SKOV3 cells by the addition of 500 ng/ml IFN-γ; endogenous in cells; host or cells: SKOV3 (human ovarian adenocarcinoma), IFN-γ induced
Assay: SKOV3 Kynurenine cell based assay
Settings: SKOV3 human ovarian adenocarcinoma cells, IDO induced by IFN-γ; kynurenine production, 48 hours
Experimental: as §1, §2
A172 (human glioblastoma) and SKOV3 (human ovarian adenocarcinoma) cells were seeded in a 96 well plate at 30,000 or 40,000 cells per well respectively in phenol red-free RPMI supplemented with 10% FCS, 2 mM L-glutamine and 500 µM L-tryptophan. IDO expression was induced in the SKOV3 cells by the addition of 500 ng/ml IFN-γ. Cells were incubated at 37° C. with or without the addition of test compound. After 48 hours, the cells were removed by centrifugation and Erhlich's reagent was added to the supernatant.

T2 sequence (P14902 whole entry): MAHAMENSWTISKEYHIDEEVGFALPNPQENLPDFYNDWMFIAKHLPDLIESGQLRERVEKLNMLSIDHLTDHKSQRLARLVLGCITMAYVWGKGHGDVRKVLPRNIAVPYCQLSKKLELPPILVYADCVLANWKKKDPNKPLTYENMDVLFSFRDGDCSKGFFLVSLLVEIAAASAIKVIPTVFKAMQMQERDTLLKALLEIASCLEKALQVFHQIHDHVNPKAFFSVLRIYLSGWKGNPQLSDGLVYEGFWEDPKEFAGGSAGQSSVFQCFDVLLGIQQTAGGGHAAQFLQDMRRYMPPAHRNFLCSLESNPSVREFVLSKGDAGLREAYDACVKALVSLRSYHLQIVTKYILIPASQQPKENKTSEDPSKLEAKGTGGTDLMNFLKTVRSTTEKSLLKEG

Structure (SMILES)	SKOV3 Kynurenine cell based assay pIC50
CCOC(=O)CCC(=O)Nc1oncc1-c1ccccc1 [Compound 28]	++ (++ = pIC50 4.50-5.49)
O=S(=O)(Cc1ccccc1)Nc1oncc1-c1ccccc1 [Compound 29]	++ (++ = pIC50 4.50-5.49)
CC(C)S(=O)(=O)Nc1oncc1-c1ccccc1 [Compound 30]	+ (+ = pIC50 4.00-4.49)
CC(C)CS(=O)(=O)Nc1oncc1-c1ccccc1 [Compound 31]	++ (++ = pIC50 4.50-5.49)
O=S(=O)(CC1CCOCC1)Nc1oncc1-c1ccccc1 [Compound 32]	+ (+ = pIC50 4.00-4.49)
O=C(O)CCC(=O)Nc1oncc1-c1ccccc1 [Compound 33]	+/− (+/− = pIC50 < 4.00)
CC(=O)N1CCC(C(=O)Nc2oncc2-c2ccccc2)CC1 [Compound 35]	+ (+ = pIC50 4.00-4.49)
CN1CCC(C(=O)Nc2oncc2-c2ccccc2)CC1 [Compound 36]	+ (+ = pIC50 4.00-4.49)
CN(C)CC(=O)Nc1oncc1-c1ccccc1 [Compound 37]	++ (++ = pIC50 4.50-5.49)
CS(=O)(=O)N1CCC(C(=O)Nc2oncc2-c2ccccc2)CC1 [Compound 38]	+ (+ = pIC50 4.00-4.49)
O=C(Nc1oncc1-c1ccccc1)c1ccncc1 [Compound 39]	++ (++ = pIC50 4.50-5.49)
O=C(Nc1oncc1-c1ccccc1)c1ccccn1 [Compound 40]	++ (++ = pIC50 4.50-5.49)
O=C(CCO)Nc1oncc1-c1ccccc1 [Compound 41]	++ (++ = pIC50 4.50-5.49)
OCCCNc1oncc1-c1ccccc1 [Compound 42]	+ (+ = pIC50 4.00-4.49)
CCOC(=O)CC(=O)Nc1oncc1-c1ccccc1 [Compound 43]	++ (++ = pIC50 4.50-5.49)
O=C(Nc1oncc1-c1ccccc1)C1CCCCN1 (centres unmarked) [Compound 44]	++ (++ = pIC50 4.50-5.49)
CCOC(=O)C(=O)Nc1oncc1-c1ccccc1 [Compound 45]	+ (+ = pIC50 4.00-4.49)
Nc1oncc1-c1ccncc1 [Compound 46]	+ (+ = pIC50 4.00-4.49)
CN(CCC(=O)Nc1oncc1-c1ccccc1)S(C)(=O)=O [Compound 47]	+ (+ = pIC50 4.00-4.49)
CS(=O)(=O)NCCC(=O)Nc1oncc1-c1ccccc1 [Compound 48]	+/− (+/− = pIC50 < 4.00)

Structure (SMILES)	SKOV3 Kynurenine cell based assay pIC50
COc1ccccc1-c1cnoc1-c1ccccc1 [Compound 51]	++ (++ = pIC50 4.50-5.49)
c1ccc(-n2nnnc2NCC2CCCCC2)cc1 [Compound 52]	+++ (+++ = pIC50 ≥ 5.50)
O=S(=O)(Nc1cnoc1-c1ccccc1)c1ccc2ccccc2c1 [Compound 53]	++ (++ = pIC50 4.50-5.49)
O=S(=O)(Nc1cnoc1-c1ccccc1)c1cc(Cl)ccc1Cl [Compound 54]	++ (++ = pIC50 4.50-5.49)
CS(=O)(=O)c1ccc(Cl)c(S(=O)(=O)Nc2cnoc2-c2ccccc2)c1 [Compound 55]	+ (+ = pIC50 4.00-4.49)
O=S(=O)(Nc1cnoc1-c1ccccc1)N1CCCCC1 [Compound 56]	++ (++ = pIC50 4.50-5.49)
OCCNc1oncc1-c1ccccc1 [Compound 57]	++ (++ = pIC50 4.50-5.49)
CN(C)C(=O)CCC(=O)Nc1oncc1-c1ccccc1 [Compound 58]	+ (+ = pIC50 4.00-4.49)
O=S(=O)(Nc1oncc1-c1ccccc1)c1cccnc1 [Compound 59]	+ (+ = pIC50 4.00-4.49)
CN(C)C(=O)CNc1oncc1-c1ccccc1 [Compound 60]	+ (+ = pIC50 4.00-4.49)
CN1CCCCC1C(=O)Nc1oncc1-c1ccccc1 (centres unmarked) [Compound 61]	+/− (+/− = pIC50 < 4.00)
O=C(Nc1oncc1-c1ccccc1)c1cccnc1 [Compound 62]	++ (++ = pIC50 4.50-5.49)
CC(C)(O)C(=O)Nc1oncc1-c1ccccc1 [Compound 64]	+ (+ = pIC50 4.00-4.49)
CNC(=O)CCC(=O)Nc1oncc1-c1ccccc1 [Compound 65]	++ (++ = pIC50 4.50-5.49)
O=C(Nc1oncc1-c1ccccc1)C1CCCN1 (centres unmarked) [Compound 66]	+/− (+/− = pIC50 < 4.00)
Nc1oncc1-c1ccccc1[N+](=O)[O-] [Compound 67]	+ (+ = pIC50 4.00-4.49)
Nc1oncc1-c1ccccc1O [Compound 68]	+ (+ = pIC50 4.00-4.49)
CN(C)CCC(=O)Nc1oncc1-c1ccccc1 [Compound 69]	+ (+ = pIC50 4.00-4.49)
O=C(Nc1nnnn1-c1ccccc1)c1ccccc1 [Compound 70]	++ (++ = pIC50 4.50-5.49)
CNCC(=O)Nc1oncc1-c1ccccc1 [Compound 71]	+ (+ = pIC50 4.00-4.49)
